One experiment addresses T1, ms5HT6 (Mus musculus, UniProt Q9R1C8).
T1 construct: expressed in transfected cells; host or cells: HEK293T
Description: NanoBit complementation assay of mini-Gs recruitment. The format is cell-based. The method, then: (§1) To measure the effect of DETQ on mini-G protein recruitment by different GPCRs we used a Nanoluciferase (NanoBit)-based complementation assay[26],[27]. For this HEK293T cells were seeded in six-well plates (Techno Plastic Products) at a density of 300,000 cells per well and co-transfected with plasmids encoding either hmDRD1, msDRD1, msDRD2, msDRD5, msADRA1a, msβ2AR or ms5HT6 carrying a C-terminally fused SmBiT, in combination with the corresponding mini-G protein probe[78] (mini-Gs: for DRD1, DRD5, β2AR, 5HT6R; mini-Gq: for ADRA1a; or mini-Gi: for DRD2), which were N-terminally fused to LgBiT, in a 1:1 DNA ratio using Effectene transfection reagent (Qiagen). 24 h after transfection cells were detached using Versene (ThermoFisher Scientific), washed, centrifuged (RT, 150 g, 3 min), and resuspended (0.5 × 10^6 cells ml^−1) in Fluorobrite DMEM (ThermoFisher Scientific) complemented with 30 mM HEPES (ThermoFisher Scientific). First, 95 µl of the cell suspension were added into each well of a white flat-bottom 96-well OptiPlate (PerkinElmer), then 25 µl of a 20-fold dilution of Nano-Glo reagent in LCS buffer (Promega) and last either 5 ul of pure Fluorobrite-DMEM or 5 ul of DETQ diluted in Fluorobrite DMEM (final concentration 100 nM for DRD1; 1 µM for all other receptors). The plate was incubated at 37 °C for 30 min, before the luminescence signal was measured at 37 °C using a Tecan Spark plate reader before and after the manual addition of 25 µl of either ligand solution (final concentrations ranging from 1 nM to 100 µM), pure Fluorobrite-DMEM or 25 µl of a DETQ solution (1 µM final concentration).
(§2) For in vitro luminescence assays, ligand traces were divided by buffer traces, the area under the curve for each trace was calculated using GraphPad Prism, values were normalized and fitted as dose response curve. The change in luminescence (∆L/L0) upon addition of different ligands was calculated as follows: (Lt – L0)/L0, with Lt being the Luminescence at ten timepoints t immediately after ligand application, and L0 being the luminescence of ten timepoints before ligand application. The statistical significance was determined using Welch’s ANOVA followed by Dunnett’s multiple comparison test (comparison of ligand or vehicle to ligand). For ex vivo imaging experiments, statistical analyses were performed in Prism (GraphPad) using independent samples t-test or nonparametric Mann-Whitney U-test when assumption of normality was violated (assessed using Schapiro-Wilk’s test). Curve fitting parameters were compared by extra sum-of-squares F test. For in vivo imaging experiments, statistical tests were paired and unpaired t-tests (two-tailed) and repeated-measures ANOVA for parametric data, while they were Wilcoxon rank sum tests or Mann-Whitney for non-parametric data. Sidak or Tukey post-hoc tests correcting for multiple comparisons were used in the case of significant interactions in ANOVA. All p-values are indicated in the Results section. […] No statistical methods were used to predetermine sample size. No data were excluded from the analyses. Group allocations used in this study were randomly assigned to animals and/or cultured cells. The Investigators were not blinded to allocation during experiments and outcome assessment.

Another experiment addresses T2, msDRD5 (Mus musculus, UniProt Q8BLD9).
T2 construct: expressed in transfected cells; host or cells: HEK293T
The description is as above. The format is cell-based. The protocol: as §1, §2

A further experiment has as its target T3, msDRD1 (Mus musculus, UniProt Q61616).
T3 construct: expressed in transfected cells; host or cells: HEK293T
The description is as above. Format: cell-based. The method, then: as §1, §2

The target of another experiment is hmDRD1 (Homo sapiens, UniProt P21728). The description is as above. Format: cell-based. The protocol:
as §1, §2

The target in another experiment is T4, msβ2AR (Mus musculus, UniProt P18762).
T4 construct: expressed in transfected cells; host or cells: HEK293T
T4 sequence (P18762 whole entry): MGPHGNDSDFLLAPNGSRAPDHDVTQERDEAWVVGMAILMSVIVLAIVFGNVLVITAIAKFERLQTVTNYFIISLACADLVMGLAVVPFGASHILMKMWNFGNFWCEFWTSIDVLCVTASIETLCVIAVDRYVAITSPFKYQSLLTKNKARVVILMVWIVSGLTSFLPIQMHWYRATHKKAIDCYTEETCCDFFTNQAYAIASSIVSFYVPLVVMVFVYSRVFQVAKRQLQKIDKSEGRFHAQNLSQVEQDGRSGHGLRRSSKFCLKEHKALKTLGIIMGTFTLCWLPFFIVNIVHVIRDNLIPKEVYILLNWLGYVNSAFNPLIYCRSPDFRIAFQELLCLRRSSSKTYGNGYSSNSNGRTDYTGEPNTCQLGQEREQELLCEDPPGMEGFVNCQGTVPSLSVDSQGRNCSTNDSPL
The description is as above. Format: cell-based. The protocol: as §1, §2

Details of experiment [1]: method as in Rajagopal et al., 2024. Conditions: ref Rajagopal et al., 2024, cited from earlier work.
The subject of a further experiment is dLight1.3b. Description: Cue-reward Pavlovian conditioning with NAc dLight1.3b photometry. Format: in vivo, mouse. The protocol:
After habituating mice to the experimental chamber (4 consecutive days for 5–10 min) mice were food restricted to 90% ad libitum body weight. […] During learning sessions, the delay between CS and US was increased every training day from 2 to 10 seconds until mice became expert. […] After i.p. injection, mice were placed into an operant chamber. 3–4 electric footshocks (0.4 mA for 1 second) were delivered 10 to 25 min post vehicle or DETQ with variable intervals (randomly chosen from a uniform distribution between 240 and 360 seconds or between 120 and 240 seconds) without predictive cues. Mouse freezing behavior was monitored with a video camera (C310 Logitech,10 frames per second) positioned above the recording chamber and controlled by the Synapse software. […] Freezing was defined as the complete cessation of all movement for at least 1 s during a 25-min testing duration.
For long-term recordings during optogenetic stimulation or chemogenetic inhibition linear fit was calculated across the entire recording or across the vehicle epoch; for event-related experiments fit was performed on fluorescent data obtained in the −60 to +60 s around opto events or −5 to −1 s around behavioral events. […] DA event-related responses were quantified by computing the value at the transient’s peak value and the AUC in the 0 to 10 s or 0 to 60 s period post-event onset. […] The maximal peak value of Veh-normalized ΔF/F0 after opto-onset was plotted over time and the plateau of maximal response was determined by averaging peak opto responses 5, 10, 15 and 20 min post-DETQ. We then looked at trials between 5 and 65 min post-DETQ to determine which trials belonged to a ‘temporal window for stable imaging’. […] AUC of the baseline was calculated within the +5 to +40 minutes time window post ip injection. For detection of spontaneous DA peaks the calculated ΔF/F0 was smoothed with a 50 datapoints (410 milliseconds) moving window, and the built-in Matlab function findpeaks was applied, with the threshold for minimal peak prominence set to 0.5% ΔF/F0.

For another experiment, the target named is T5, msADRA1a (Mus musculus, UniProt P97718).
T5 construct: expressed in transfected cells; host or cells: HEK293T
T5 sequence (P97718 whole entry): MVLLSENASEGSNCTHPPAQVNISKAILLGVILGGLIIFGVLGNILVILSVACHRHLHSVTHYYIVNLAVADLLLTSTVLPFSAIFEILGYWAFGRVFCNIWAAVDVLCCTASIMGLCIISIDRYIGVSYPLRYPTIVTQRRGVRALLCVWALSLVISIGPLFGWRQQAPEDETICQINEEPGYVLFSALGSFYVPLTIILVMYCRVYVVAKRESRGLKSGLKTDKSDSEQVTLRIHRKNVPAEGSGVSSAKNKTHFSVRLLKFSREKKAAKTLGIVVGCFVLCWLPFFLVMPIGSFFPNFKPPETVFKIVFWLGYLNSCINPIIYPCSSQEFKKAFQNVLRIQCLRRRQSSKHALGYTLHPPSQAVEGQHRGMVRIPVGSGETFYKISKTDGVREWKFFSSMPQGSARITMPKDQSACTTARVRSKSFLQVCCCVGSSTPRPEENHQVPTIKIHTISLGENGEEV
Description: NanoBit complementation assay of mini-Gq recruitment. The format is cell-based. The protocol:
To measure the effect of DETQ on mini-G protein recruitment by different GPCRs we used a Nanoluciferase (NanoBit)-based complementation assay[26],[27]. For this HEK293T cells were seeded in six-well plates (Techno Plastic Products) at a density of 300,000 cells per well and co-transfected with plasmids encoding either hmDRD1, msDRD1, msDRD2, msDRD5, msADRA1a, msβ2AR or ms5HT6 carrying a C-terminally fused SmBiT, in combination with the corresponding mini-G protein probe[78] (mini-Gs: for DRD1, DRD5, β2AR, 5HT6R; mini-Gq: for ADRA1a; or mini-Gi: for DRD2), which were N-terminally fused to LgBiT, in a 1:1 DNA ratio using Effectene transfection reagent (Qiagen). […] The plate was incubated at 37 °C for 30 min, before the luminescence signal was measured at 37 °C using a Tecan Spark plate reader before and after the manual addition of 25 µl of either ligand solution (final concentrations ranging from 1 nM to 100 µM), pure Fluorobrite-DMEM or 25 µl of a DETQ solution (1 µM final concentration).
For in vitro luminescence assays, ligand traces were divided by buffer traces, the area under the curve for each trace was calculated using GraphPad Prism, values were normalized and fitted as dose response curve. […] The statistical significance was determined using Welch’s ANOVA followed by Dunnett’s multiple comparison test (comparison of ligand or vehicle to ligand). […]

Where [2] appears, read: NAc, DETQ 10 mg/kg vs vehicle days.

Each structure is given as a SMILES string. Read-outs that look alike come from different tables or passages of the source.

Here are results for one molecule from article PMC11219860, “A chemogenetic approach for dopamine imaging with tunable sensitivity” (Nature Communications, 2024).

T1 sequence (Q9R1C8 whole entry): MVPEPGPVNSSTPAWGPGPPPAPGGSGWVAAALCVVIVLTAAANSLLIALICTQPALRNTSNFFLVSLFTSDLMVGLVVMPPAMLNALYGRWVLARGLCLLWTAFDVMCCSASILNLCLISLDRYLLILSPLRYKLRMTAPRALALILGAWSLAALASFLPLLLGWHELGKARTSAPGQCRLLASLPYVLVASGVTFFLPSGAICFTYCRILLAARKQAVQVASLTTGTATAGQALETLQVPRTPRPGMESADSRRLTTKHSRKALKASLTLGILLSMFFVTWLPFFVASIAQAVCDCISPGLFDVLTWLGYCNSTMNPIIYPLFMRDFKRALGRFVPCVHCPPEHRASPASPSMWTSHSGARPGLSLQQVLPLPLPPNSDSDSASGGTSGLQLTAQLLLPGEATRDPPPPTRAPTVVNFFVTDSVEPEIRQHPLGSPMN
Sequence of hmDRD1 (P21728 whole entry): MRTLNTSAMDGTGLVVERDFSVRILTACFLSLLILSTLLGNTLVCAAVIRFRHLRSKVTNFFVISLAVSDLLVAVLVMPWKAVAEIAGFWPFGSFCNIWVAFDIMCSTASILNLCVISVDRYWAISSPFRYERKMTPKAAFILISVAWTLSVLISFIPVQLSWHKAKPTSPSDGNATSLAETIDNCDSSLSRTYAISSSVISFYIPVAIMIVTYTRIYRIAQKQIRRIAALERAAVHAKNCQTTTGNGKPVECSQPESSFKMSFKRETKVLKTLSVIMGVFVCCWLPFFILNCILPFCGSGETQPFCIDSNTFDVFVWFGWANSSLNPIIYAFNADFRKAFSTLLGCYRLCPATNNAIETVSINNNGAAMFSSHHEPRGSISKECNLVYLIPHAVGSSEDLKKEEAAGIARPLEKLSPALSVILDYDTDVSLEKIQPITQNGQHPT
T2 sequence (Q8BLD9 whole entry): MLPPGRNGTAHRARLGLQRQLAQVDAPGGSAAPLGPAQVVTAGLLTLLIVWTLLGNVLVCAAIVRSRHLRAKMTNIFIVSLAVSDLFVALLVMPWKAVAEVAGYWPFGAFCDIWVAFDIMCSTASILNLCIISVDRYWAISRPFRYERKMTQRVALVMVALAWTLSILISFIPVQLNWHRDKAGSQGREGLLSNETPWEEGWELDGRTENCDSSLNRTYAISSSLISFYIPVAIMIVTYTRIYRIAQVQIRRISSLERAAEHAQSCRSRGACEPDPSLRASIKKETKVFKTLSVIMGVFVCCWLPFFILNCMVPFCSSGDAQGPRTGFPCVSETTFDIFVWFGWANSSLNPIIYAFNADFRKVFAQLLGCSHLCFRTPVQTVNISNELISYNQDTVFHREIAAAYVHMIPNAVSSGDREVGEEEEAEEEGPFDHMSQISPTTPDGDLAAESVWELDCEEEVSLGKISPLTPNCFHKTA
T3 sequence (Q61616 whole entry): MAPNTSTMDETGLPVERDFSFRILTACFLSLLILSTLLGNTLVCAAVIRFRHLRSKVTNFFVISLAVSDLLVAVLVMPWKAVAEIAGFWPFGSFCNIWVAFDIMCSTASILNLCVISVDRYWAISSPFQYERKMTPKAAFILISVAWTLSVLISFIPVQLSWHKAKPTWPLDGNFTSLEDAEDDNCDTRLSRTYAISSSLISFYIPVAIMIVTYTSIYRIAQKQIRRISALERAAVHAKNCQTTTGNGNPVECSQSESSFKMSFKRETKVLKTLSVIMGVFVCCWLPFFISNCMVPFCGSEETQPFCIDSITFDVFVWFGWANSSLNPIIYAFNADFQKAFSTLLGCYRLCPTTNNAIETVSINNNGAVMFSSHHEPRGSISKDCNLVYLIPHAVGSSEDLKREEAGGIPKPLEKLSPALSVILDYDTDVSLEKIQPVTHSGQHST

In the case of `C[C@H]1c2cccc(C(C)(C)O)c2C[C@H](CO)N1C(=O)Cc1c(Cl)cccc1Cl` [DETQ, 2-(2,6-dichlorophenyl)-1-((1S,3R)-3-(hydroxymethyl)-5-(2-hydroxypropan-2-yl)-1-methyl-3,4-dihydroisoquinolin-2(1H)-yl)ethan-1-one], the “agonist mode: direct agonist effect” value at ms5HT6 (DETQ 1 µM alone), at msDRD5 (DETQ 1 µM alone), at msDRD1 (DETQ 1 µM alone), on hmDRD1 (DETQ 1 µM alone), on msβ2AR (DETQ 1 µM alone) and on msADRA1a (DETQ 1 µM alone) was “no direct agonist effect” throughout. The “allosteric modulator mode: effect on agonist dose-response” value on ms5HT6 (DETQ 1 µM, 5HT) is listed as “No allosteric effect”; at msDRD5 (DETQ 1 µM, DA) it was “No allosteric effect”; on msβ2AR (DETQ 1 µM, NE), “No allosteric effect”; at msADRA1a (DETQ 1 µM, NE) it was “No allosteric effect”. Further, the “allosteric modulator mode: potentiation of mini-Gs recruitment during DA titration” value at msDRD1 (DETQ 100 nM) is “potentiation of mini-Gs recruitment only in the case of the hmDRD1”; at hmDRD1 (DETQ 100 nM) it was “strong and significant potentiation”. The “deficits in Novel Object Recognition and Social Interaction” value is on record as “fully reversed these deficits” in experiment [1] (aged hD1 mice, PO 3-10 mg/kg) and “failed to reverse these deficits” in experiment [1] (aged wild type mice). Besides, the “latency to lick and overall licking activity” value in the experiment on dLight1.3b (DETQ 10 mg/kg) is “not affected”. Also, in the experiment with dLight1.3b (setting [2]), the “enhancement factor of CS-associated DA peak amplitude” value is recorded as “approximately 2 fold”. For the same molecule, in the experiment with dLight1.3b (setting [2]), the “enhancement factor of US-associated DA peak amplitude” value is around 1.5 fold.
